Source: patent US20020155064A1, “Method for detection and localization of malignant human tumours” (priority 1997, published 2002)

Tested on: neurotensin receptors
Experiment: Receptor autoradiography displacement of [125I]-neurotensin binding on tumour tissue sections
Conditions: tissue sections from human differentiated ductal pancreatic adenocarcinoma; 40,000 cpm/100 µl [125I]-neurotensin, increasing concentrations of unlabelled peptide; 4° C., 60 minutes; FIG. 1
Description: Receptor autoradiography is performed on 10- and 20-mm thick cryostat sections of the various tumour samples, as described by Reubi et al. (Cancer Res. 1990, 50, 5969-5977). […] After incubation, the sections are washed for eight minutes at 4° C. in four consecutive baths containing 50 mM Tris-HCl buffer, pH 7.6, dipped in ice-cold water, and then quickly dried in a refrigerator under a stream of cold air. The sections are subsequently exposed to a ^3H-Ultrofilm for 1 week, to detect the precise location of the radioactivity. […] Each point represents the optical density of binding measured in the tumour area. Non-specific binding is subtracted from all values.

Ac-Arg-Arg-Pro-Tyr-Ile-Leu-OH [acetyl-neurotensin 8-13]
displacement of [125I]-neurotensin binding: Complete displacement
